In article PMC6298432 (ACS chemical biology, 2017):

What was measured:
[1] = system: M. tuberculosis ATCC 27294; test: M. tuberculosis growth inhibition assay; assay type: cell-based
[2] = system: FolA (dihydrofolate reductase, DHFR); test: ALIS binding to FolA; set-up: species or system E. coli
[3] = molecular target: FolA (dihydrofolate reductase, DHFR); conditions: cited from earlier work
E. coli = test: Historical phenotypic screen for inhibitors of E. coli growth; assay type: cell-based; conditions: active = ≥80% inhibition of bacterial growth
[4] = system: mouse dihydrofolate reductase; conditions: cited from earlier work
[5] = system: Mycobacterium tuberculosis (Mtb); assay type: cell-based; conditions: active = ≥80% inhibition of bacterial growth

Row | SMILES | Inhibition of Mtb growth (antibacterial activity) [1] | Binding to FolA detected in ALIS [2] | Activity in E. coli growth phenotypic screen (E. coli) | further results
1 | CN(Cc1cnc2nc(N)nc(N)c2n1)c1ccc(C(=O)N[C@@H](CCC(=O)O)C(=O)O)cc1 [Methotrexate] | no efficacy | – | – | –
2 | COc1ccc(Cc2cnc(N)nc2N)cc1OC [Diaveridine] | – | binders detected | active | IC50 for FolA [3]: nanomolar
3 | COc1cc(Cc2cnc(N)nc2N)cc(OC)c1OC [Trimethoprim] | – | – | active | –
4 | COc1cc(Cc2cnc(N)nc2N)cc(OC)c1Br [brodimoprim] | – | failure to detect their binding | – | –
5 | C#CCN(Cc1cnc2nc(N)nc(N)c2n1)c1ccc(C(=O)N[C@@H](CCC(=O)O)C(=O)O)cc1 [10-PAP, 10-propargylaminopterin] | retained bioactivity | – | – | Inhibition of mouse dihydrofolate reductase [4]: inhibit; Activity in Mtb growth phenotypic screen [5]: active
